{"source": "patent US5873359A", "about": "“Methods and devices for treating pulmonary vasoconstriction and asthma” (The General Hospital Corporation, priority 1994, dated 1999)", "key": {"[1]": {"system": "heparin-protamine-induced elevated PAP and PVR", "format": "in vivo, sheep", "experimental": "The heparin-protamine reaction was induced in these nine sheep by first administering heparin (200 U/kg; Elkins-Sinn, Cherry Hill, N.J.) followed five minutes later (at time zero) by protamine (2 mg/kg; Elkins-Sinn). Each of these sheep also served as a control. Six additional sheep were given an intravenous infusion of sodium nitroprusside (40 μg/kg/min body weight; Elkins-Sinn) while breathing air (data not shown)."}, "[2]": {"system": "non-constricted human lung", "assay": "40 ppm NO in healthy volunteers breathing air (non-constricted lung)", "format": "in vivo", "experimental": "The effects of breathing 40 ppm NO were studied in five awake, healthy human volunteer subjects inhaling various gas mixtures for 10 min periods, with measurements starting at 6 min."}, "PPHN": {"system": "PPHN", "assay": "NO inhalation in two more infants with PPHN", "format": "in vivo, human", "text": "Subsequent subjects. Two more infants with PPHN have been treated by NO inhalation."}, "[3]": {"system": "U46619-induced pulmonary vasoconstriction", "assay": "Inhaled NO in lambs with U46619-induced pulmonary vasoconstriction", "format": "in vivo, Suffolk lambs", "text": "Eight Suffolk lambs weighing 25-35 kg underwent a sterile thoracotomy in order to place a left atrial line, tracheostomy and femoral artery line under general endotracheal anesthesia with halothane/oxygen three days before study. After three days of recovery the lambs underwent sterile placement of a 7 French thermal dilution pulmonary artery monitoring catheter under local anesthesia.\nAwake unanesthetized lambs were studied in order to avoid general anesthesia which can blunt hypoxic vasoconstriction. Lambs were placed in a Babraham cage and allowed to drink and eat ad lib. Two studies were performed 2 days apart on each of six lambs. After the study the lambs were sacrificed with an overdose of barbiturate and heir lungs were fixed, stained and examined by light microscopy for pathological changes.\nOn the first study day lambs breathing 60-70% oxygen were given an infusion of a potent pulmonary vasoconstrictor, the stable endoperoxide analog (5Z, 9α, 13E, 15S)-11,9-(Epoxymethano)prosta-5,13-dien-1-oic acid (U46619, The Upjohn Company, Kalamazoo, Mich.) of thromboxane at a rate of 0.4-0.8 μg/kg/min. The tracheostomy was connected to a non-rebreathing circuit consisting of a 5 liter reservoir bag and one way valves to isolate inspired from expired gas. Expired gas was scavenged and discarded. The inspired gas was a precise mixture of oxygen and nitrogen immediately diluted with NO to produce the correct inspired concentration. Using volumetrically calibrated flowmeters, varying quantities of NO were mixed with N2 to obtain the desired inspired NO concentration at an inspired oxygen concentration (Fi O2) of 0.6-0.7. The reservoir bag was emptied after each level of NO inhalation. The residence half time of NO in the gas reservoir was 15 seconds or less to minimize conversion to NO2. NO was obtained from Air Products and Chemicals, Inc., Allentown, Pa. as a mixture of 235 ppm NO in pure N2. […] Fontijin, Anal. Chem. 27:1903 (1981).\nEach level of NO exposure was followed by six minutes of breathing the oxygen mixture without NO (FIG. 2). A second exposure to NO was examined for similar periods. Subsequently, a control period breathing the oxygen mixture was studied six minutes after ceasing U46619 infusion. At each three and six minute time period after administering or discontinuing NO during the study, we measured mean and phasic pulmonary artery pressure (PAP), left atrial pressure (LAP), systemic arterial pressure (SAP) and central venous pressure (CVP). All pressures were recorded on a Hewlett Packard multi-channel strip chart recorder with transducers zeroed to atmospheric pressure at the mid point of the thorax (e.g., see FIG. 3). Cardiac output (CO) was measured by thermal dilution as the average of two determinations injecting 5 ml of 0° C. Ringers lactate. Pulmonary vascular resistance (PVR) and systemic vascular resistance (SVR) were computed by standard formulae; PVR measured at each inhaled NO concentration is shown in FIG. 4. Appropriate statistical analyses were performed, and all data were expressed as mean ± standard error."}, "lungs": {"system": "lungs", "assay": "Light microscopy of lungs for morphological changes caused by breathing NO", "format": "in vivo", "conditions": "80 ppm NO for 180 min, three lambs vs control lungs", "experimental": "Lungs from three lambs which had breathed 80 ppm NO for 180 min were studied by light microscopy for evidence of morphological changes caused by breathing NO."}, "[4]": {"conditions": "air (21% O2) + 40 ppm NO, n = 5, X ± S.D."}, "[5]": {"conditions": "regression vs NO concentration, eight lambs"}}}
{"compound": "[N]=O", "note": "[NO, nitric oxide]", "values": [{"measurement": "systemic hypotension", "setting": "[1]; 180 ppm inhaled NO vs SNP", "result": "without the latter drug's propensity to cause marked systemic hypotension"}, {"measurement": "lowering of heparin-protamine-induced PAP", "setting": "[1]; 180 ppm inhaled NO vs SNP 40 μg/kg/min", "result": "comparable to 40 μg/kg/min SNP infusion"}, {"measurement": "prevention of elevated PAP and PVR", "setting": "[1]; 180 ppm inhaled NO, nine awake sheep", "result": "prevent the elevated PAP and PVR"}, {"measurement": "pulmonary or systemic vasodilatory effect", "setting": "[2]; 40 ppm NO, normal (21% v/v) O2", "result": "no pulmonary or systemic vasodilatory effect"}, {"measurement": "PVR", "setting": "[2]; air (21% O2) + 40 ppm NO, n = 5", "result": 0.61, "unit": "mmHg · min/l"}, {"measurement": "CO", "setting": "[2]; [4]", "result": "6.40 ± 0.88", "unit": "L/min"}, {"measurement": "CVP", "setting": "[2]; [4]", "result": "6.3 ± 1.7", "unit": "mmHG"}, {"measurement": "MAP", "setting": "[2]; [4]", "result": "88.0 ± 3.7", "unit": "mmHg"}, {"measurement": "PAP", "setting": "[2]; [4]", "result": "14.0 ± 1.8", "unit": "mmHg"}, {"measurement": "PCWP", "setting": "[2]; [4]", "result": "10.1 ± 2.5", "unit": "mmHg"}, {"measurement": "PaCO2", "setting": "[2]; [4]", "result": "38 ± 5", "unit": "mmHg"}, {"measurement": "PaO2", "setting": "[2]; [4]", "result": "94.7 ± 16.3", "unit": "mmHg"}, {"measurement": "SaO2", "setting": "[2]; [4]", "result": "96.0 ± 1.0", "unit": "%"}, {"measurement": "preductal oxygenation", "setting": "PPHN; 20-80 ppm NO", "result": "increases in preductal oxygenation"}, {"measurement": "response", "setting": "PPHN; 20-80 ppm NO", "result": "excellent response"}, {"measurement": "survival", "setting": "PPHN; 20-80 ppm NO, two infants", "result": "both survived longterm"}, {"measurement": "need for ECMO", "setting": "PPHN; one of the infants, NO inhalation alone", "result": "ECMO was altogether avoided"}, {"measurement": "PA pressure", "setting": "[3]; 5 ppm NO (0.89 μg/kg/min)", "result": "significantly reduced the PA pressure"}, {"measurement": "vasodilator response", "setting": "[3]; 40 or 80 ppm NO", "result": "almost complete vasodilator response"}, {"measurement": "PAP", "setting": "[3]; 80 ppm NO for one hour, four lambs", "result": "pulmonary vasodilation to a normal PAP"}, {"measurement": "time to nearly maximal vasodilator effect", "setting": "[3]; FIG. 3", "result": "within three minutes"}, {"measurement": "pulmonary hypertension after NO inhalation", "setting": "[3]; after 80 ppm NO for one hour, four lambs", "result": "pulmonary hypertension recurring after NO inhalation"}, {"measurement": "onset of pulmonary vasodilation", "setting": "[3]; after beginning NO inhalation", "result": "within seconds"}, {"measurement": "return to prior level of vasoconstriction after ceasing NO", "setting": "[3]; after ceasing to inhale NO", "result": "within three to six minutes"}, {"measurement": "pulmonary vasoconstriction and pulmonary hypertension", "setting": "[3]; all dose levels of NO (5-80 ppm)", "result": "prompt reduction of the pulmonary vasoconstriction and pulmonary hypertension"}, {"measurement": "CO", "setting": "[3]; [5]", "result": "no significant change"}, {"measurement": "SVR", "setting": "[3]; [5]", "result": "no significant change"}, {"measurement": "mean SAP", "setting": "[3]; [5]", "result": "no significant change"}, {"measurement": "vasodilator response of second exposure", "setting": "[3]; second exposure to 5, 10 and 20 ppm NO", "result": "no significant reduction from the prior series of exposures"}, {"measurement": "morphological changes of lungs", "setting": "lungs", "result": "No significant differences"}]}
